“Also recorded” adds a separate entry of the source.
Legend:
[1] = system: Human Umbilical Vein Endothelial Cells (HUVEC); assay: Capillary tube formation assay (HUVEC on Matrigel); type: cell-based; settings: for Total length of capillary tubes (percentage of control): ANOVA main effect: 0, 1, 5 and 10 μM doses
Procedure: All in-vitro experiments were performed using primary Human Umbilical Vein Endothelial Cells (HUVEC) at passages 3-4, purchased from American Tissue Type Culture Collection (ATCC, VA). Cells were cultured in F12K Medium (ATCC, VA) supplemented with 10% fetal bovine serum (Invitrogen, CA), 0.1 mg/ml Heparin and 0.03 mg/ml endothelial cell growth supplement (Sigma-Aldrich, MO). At all times, cells were maintained in a sterile cell culture incubator at 37° C. and 5% CO2.
HUVEC (7.5×10^4 cells/ml) in 500 μl of medium were seeded in 24-well plates, on top of a layer of Matrigel basement membrane matrix (Invitrogen, CA) in F12K medium (ATCC, VA) containing 4% serum (Invitrogen, CA), 0.1 mg/ml Heparin and 0.03 mg/ml endothelial cell growth supplement (Sigma-Aldrich, MO). Cells were incubated with peptides (or control conditions) for 24 hours. Control wells received the same volume of vehicle (DMSO) used to dilute the peptides. Network formation experiments were performed in triplicate, and at least 2 randomly chosen fields were photographed for each well using a 4× objective. Capillary length was measured using Image Pro Plus software (Media Cybernetic, Inc., MD).

[2] = system: VEGF-induced angiogenesis; assay: Rat corneal micropocket assay; type: in vivo; settings: 0.5, 2.5 and 5.0 μg with 200 ng VEGF; 7 days
Procedure: The vascular growth response was measured seven days post implantation. The lengths and widths of vessel outgrowths were measured and the angiogenic index (AI) calculated using the formula L×W=AI. Rats were perfused with colloidal carbon, eyes enucleated and fixed in 10% buffered formalin. Corneas were removed under an Olympus dissecting microscope and mounted on glass slides with Crystal Mount media.

[3] = tested at 1, 5 and 10 μM, 24 hours

LMVGGVVIA (listed as Homo sapiens) [Aβ34-42]
anti-angiogenic activity in capillary network formation [1, 3]: pro-angiogenic activity; also recorded: did not display any anti-angiogenic activity; also recorded: promoted angiogenesis in a dose dependent manner; also recorded: not active

DAEFRHDSGYEVAAQALVFFAEDVGSNK (listed as Homo sapiens) [Aβ1-28 Mutant 2]
Total length of capillary tubes (percentage of control): ANOVA main effect [1]: no main effect

heparin [reference compound]
reversal of inhibition of capillary tube formation induced by Aβ1-42 ([1]; heparin 500 μg/ml and 1 mg/ml added with Aβ1-42, P<0.001 vs Aβ alone): effectively reverse; also recorded: effectively reversed inhibition | inhibition of angiogenesis (capillary tube formation) by heparin alone ([1]; heparin alone, 0.5 or 1 mg/ml): slight inhibition

HHHQKLVFF (listed as Homo sapiens) [Fragment 1]
inhibition of VEGF-induced angiogenesis in vivo (Angiogenic Index) [2]: appears antiangiogenic in vivo | Total length of capillary tubes (percentage of control): ANOVA main effect [1]: significant main effect | Total length of capillary tubes (percentage of control): post hoc effect ([1]; 1, 5 and 10 μM, P<0.005): significant effects

YEVHHQK (listed as Homo sapiens) [Aβ10-16]
anti-angiogenic activity in capillary network formation [1, 3]: did not display any anti-angiogenic activity; also recorded: inactive

YEVHHQKLVFFAEDVGSNKGAIIGLM (listed as Homo sapiens) [Aβ10-35]
Total length of capillary tubes (percentage of control): post hoc difference from control ([1]; 5 and 10 μM doses, P<0.005, 24 hours, n≧8): significant differences | anti-angiogenic activity in capillary network formation [1, 3]: most active

LVFFAEDVGSNK (listed as Homo sapiens) [Aβ17-28]
anti-angiogenic activity in capillary network formation [1, 3]: did not display any anti-angiogenic activity; also recorded: not active

DAEFRHDSGYEVGGQGLVFFAEDVGSNK (listed as Homo sapiens) [Aβ1-28 Mutant 1]
Total length of capillary tubes (percentage of control): ANOVA main effect [1]: no main effect

GSNKGAIIGLM (listed as Homo sapiens) [Aβ25-35]
anti-angiogenic activity in capillary network formation ([1]; 5 μM): slightly active | anti-angiogenic activity in capillary network formation ([1]; 10 μM): not at 10 μM | anti-angiogenic activity in capillary network formation [1, 3]: not active

From US8067372B2, “Modulation of angiogenesis by A-beta peptide fragments” (Alzheimer's Institute of America, Inc., priority 2005, dated 2011)
